Experimental data as given in paper PMC4457528, “Identification of Novel Small Molecule Inhibitors of Oncogenic RET Kinase” (PLoS ONE, 2015).
Like-named read-outs stand apart in the source and are kept apart here.

How the values were obtained:
Assay in all cases: KinomeScan kinase panel, single concentration 10 µM
Type in all cases: binding
[1] = molecular target: T1, KinomeScan kinase panel (Homo sapiens, UniProt P08581, Y1235D); conditions: MET(Y1235D), 10 µM
T1 construct: purchased DiscoveRx (KinomeScan)
T1 sequence (P08581 25-1390 Y1235D): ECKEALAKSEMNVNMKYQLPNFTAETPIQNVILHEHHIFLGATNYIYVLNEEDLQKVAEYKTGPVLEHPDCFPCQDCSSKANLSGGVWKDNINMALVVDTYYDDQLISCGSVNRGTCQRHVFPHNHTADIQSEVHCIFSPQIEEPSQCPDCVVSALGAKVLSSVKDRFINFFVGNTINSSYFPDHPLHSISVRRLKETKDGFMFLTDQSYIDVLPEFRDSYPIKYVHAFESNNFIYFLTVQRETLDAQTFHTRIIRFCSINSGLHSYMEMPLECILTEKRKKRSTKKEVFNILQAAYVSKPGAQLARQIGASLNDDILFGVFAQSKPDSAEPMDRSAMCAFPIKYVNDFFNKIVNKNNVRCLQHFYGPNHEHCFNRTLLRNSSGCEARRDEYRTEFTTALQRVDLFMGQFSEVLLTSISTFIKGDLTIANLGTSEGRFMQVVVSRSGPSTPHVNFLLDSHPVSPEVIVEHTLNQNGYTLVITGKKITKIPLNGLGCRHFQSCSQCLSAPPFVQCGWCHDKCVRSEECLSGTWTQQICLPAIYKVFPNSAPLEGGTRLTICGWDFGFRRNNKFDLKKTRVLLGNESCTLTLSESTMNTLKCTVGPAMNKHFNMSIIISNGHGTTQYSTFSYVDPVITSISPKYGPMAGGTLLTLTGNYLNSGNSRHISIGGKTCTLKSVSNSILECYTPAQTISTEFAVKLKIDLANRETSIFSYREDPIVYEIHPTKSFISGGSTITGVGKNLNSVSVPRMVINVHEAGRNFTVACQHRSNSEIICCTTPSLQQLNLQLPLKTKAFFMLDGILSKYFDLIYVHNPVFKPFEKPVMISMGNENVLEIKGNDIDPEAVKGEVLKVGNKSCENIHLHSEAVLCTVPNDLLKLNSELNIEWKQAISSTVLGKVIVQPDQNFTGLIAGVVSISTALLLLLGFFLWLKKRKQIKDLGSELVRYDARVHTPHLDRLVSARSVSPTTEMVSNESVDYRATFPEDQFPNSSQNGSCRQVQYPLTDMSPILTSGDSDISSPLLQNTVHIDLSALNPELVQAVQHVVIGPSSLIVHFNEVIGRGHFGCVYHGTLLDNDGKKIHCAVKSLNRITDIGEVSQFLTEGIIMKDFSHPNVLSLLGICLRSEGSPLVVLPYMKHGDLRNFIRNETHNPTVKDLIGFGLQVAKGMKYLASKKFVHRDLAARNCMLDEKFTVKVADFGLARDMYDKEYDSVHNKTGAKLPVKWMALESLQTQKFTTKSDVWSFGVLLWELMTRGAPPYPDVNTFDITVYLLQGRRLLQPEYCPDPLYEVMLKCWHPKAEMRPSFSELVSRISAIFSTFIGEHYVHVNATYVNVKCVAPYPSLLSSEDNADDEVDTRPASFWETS

[2] = molecular target: T2, KinomeScan kinase panel (Homo sapiens, UniProt P42336, C420R); conditions: PIK3CA(C420R), 10 µM; read-out: score (%)
T2 construct: purchased DiscoveRx (KinomeScan)
T2 sequence (P42336 whole entry C420R): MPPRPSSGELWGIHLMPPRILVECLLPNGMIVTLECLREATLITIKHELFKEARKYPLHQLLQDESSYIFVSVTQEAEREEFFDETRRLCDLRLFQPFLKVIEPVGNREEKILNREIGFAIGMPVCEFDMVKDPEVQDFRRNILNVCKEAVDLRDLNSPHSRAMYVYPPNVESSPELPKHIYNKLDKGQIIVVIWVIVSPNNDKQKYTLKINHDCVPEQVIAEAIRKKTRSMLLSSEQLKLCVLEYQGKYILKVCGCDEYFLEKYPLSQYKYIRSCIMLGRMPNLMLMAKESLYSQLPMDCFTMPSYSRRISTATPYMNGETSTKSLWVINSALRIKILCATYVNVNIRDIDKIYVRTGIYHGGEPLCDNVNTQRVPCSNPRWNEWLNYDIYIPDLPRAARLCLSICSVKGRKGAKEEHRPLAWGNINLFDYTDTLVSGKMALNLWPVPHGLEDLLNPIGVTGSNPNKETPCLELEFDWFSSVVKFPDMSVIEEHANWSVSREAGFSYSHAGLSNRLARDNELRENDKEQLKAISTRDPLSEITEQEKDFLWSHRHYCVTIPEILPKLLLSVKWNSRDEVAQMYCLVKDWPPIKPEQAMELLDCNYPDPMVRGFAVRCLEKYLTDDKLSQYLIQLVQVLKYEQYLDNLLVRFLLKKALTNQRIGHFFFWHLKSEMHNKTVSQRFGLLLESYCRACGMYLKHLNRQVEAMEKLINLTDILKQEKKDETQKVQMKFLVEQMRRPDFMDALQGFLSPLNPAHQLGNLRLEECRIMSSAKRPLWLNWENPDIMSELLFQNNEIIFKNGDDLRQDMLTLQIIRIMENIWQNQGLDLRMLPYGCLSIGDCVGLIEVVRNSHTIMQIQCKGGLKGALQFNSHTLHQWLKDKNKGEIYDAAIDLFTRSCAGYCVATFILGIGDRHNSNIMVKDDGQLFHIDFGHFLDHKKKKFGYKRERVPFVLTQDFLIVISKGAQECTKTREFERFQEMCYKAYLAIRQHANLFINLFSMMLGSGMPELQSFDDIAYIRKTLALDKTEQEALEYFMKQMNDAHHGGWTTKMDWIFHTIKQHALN

[3] = molecular target: T3, KinomeScan kinase panel (Homo sapiens, UniProt P57058); conditions: HUNK, 10 µM; read-out: score (%)
T3 construct: purchased DiscoveRx (KinomeScan)
T3 sequence (P57058 whole entry): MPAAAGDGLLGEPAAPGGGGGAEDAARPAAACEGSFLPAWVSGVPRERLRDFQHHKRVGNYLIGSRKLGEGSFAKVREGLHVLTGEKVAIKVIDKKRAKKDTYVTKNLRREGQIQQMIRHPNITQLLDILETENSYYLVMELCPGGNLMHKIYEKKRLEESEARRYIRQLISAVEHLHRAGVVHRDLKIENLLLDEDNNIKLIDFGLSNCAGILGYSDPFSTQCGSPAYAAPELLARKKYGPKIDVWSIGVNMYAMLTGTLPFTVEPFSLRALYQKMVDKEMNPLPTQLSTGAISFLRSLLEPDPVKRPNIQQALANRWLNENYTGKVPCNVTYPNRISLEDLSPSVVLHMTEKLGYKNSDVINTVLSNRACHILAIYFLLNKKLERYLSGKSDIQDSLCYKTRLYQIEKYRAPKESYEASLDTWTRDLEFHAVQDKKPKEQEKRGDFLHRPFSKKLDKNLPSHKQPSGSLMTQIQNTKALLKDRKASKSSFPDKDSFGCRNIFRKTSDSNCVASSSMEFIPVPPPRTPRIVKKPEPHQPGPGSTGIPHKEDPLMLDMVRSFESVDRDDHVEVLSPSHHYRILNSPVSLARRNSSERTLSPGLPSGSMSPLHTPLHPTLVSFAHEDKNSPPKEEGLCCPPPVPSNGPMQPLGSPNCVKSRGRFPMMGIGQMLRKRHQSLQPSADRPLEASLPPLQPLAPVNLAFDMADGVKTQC

[4] = molecular target: T4, KinomeScan kinase panel (Homo sapiens, UniProt Q13464); conditions: read-out: score (%)
T4 construct: purchased DiscoveRx (KinomeScan)

[5] = molecular target: T5, KinomeScan kinase panel (Homo sapiens, UniProt Q52WX2); conditions: kinase SBK1; 10 µM; read-out: score (%)
T5 construct: purchased DiscoveRx (KinomeScan)

[6] = molecular target: T6, KinomeScan kinase panel (Homo sapiens, UniProt O43283); conditions: LZK, 10 µM
T6 construct: purchased DiscoveRx (KinomeScan)

[7] = molecular target: T7, KinomeScan kinase panel (Homo sapiens, UniProt P10721, L576P); conditions: KIT(L576P), 10 µM; read-out: score (%)
T7 construct: purchased DiscoveRx (KinomeScan)

[8] = molecular target: T8, KinomeScan kinase panel (Homo sapiens, UniProt O75747); conditions: PIK3C2G, 10 µM; read-out: score (%)
T8 construct: purchased DiscoveRx (KinomeScan)

[9] = molecular target: T9, KinomeScan kinase panel (Homo sapiens, UniProt Q8IVW4); conditions: CDKL3, 10 µM; read-out: score (%)
T9 construct: purchased DiscoveRx (KinomeScan)

[10] = molecular target: T10, KinomeScan kinase panel (Homo sapiens, UniProt O95382); conditions: ASK2, 10 µM; read-out: score (%)
T10 construct: purchased DiscoveRx (KinomeScan)
T10 sequence (O95382 whole entry): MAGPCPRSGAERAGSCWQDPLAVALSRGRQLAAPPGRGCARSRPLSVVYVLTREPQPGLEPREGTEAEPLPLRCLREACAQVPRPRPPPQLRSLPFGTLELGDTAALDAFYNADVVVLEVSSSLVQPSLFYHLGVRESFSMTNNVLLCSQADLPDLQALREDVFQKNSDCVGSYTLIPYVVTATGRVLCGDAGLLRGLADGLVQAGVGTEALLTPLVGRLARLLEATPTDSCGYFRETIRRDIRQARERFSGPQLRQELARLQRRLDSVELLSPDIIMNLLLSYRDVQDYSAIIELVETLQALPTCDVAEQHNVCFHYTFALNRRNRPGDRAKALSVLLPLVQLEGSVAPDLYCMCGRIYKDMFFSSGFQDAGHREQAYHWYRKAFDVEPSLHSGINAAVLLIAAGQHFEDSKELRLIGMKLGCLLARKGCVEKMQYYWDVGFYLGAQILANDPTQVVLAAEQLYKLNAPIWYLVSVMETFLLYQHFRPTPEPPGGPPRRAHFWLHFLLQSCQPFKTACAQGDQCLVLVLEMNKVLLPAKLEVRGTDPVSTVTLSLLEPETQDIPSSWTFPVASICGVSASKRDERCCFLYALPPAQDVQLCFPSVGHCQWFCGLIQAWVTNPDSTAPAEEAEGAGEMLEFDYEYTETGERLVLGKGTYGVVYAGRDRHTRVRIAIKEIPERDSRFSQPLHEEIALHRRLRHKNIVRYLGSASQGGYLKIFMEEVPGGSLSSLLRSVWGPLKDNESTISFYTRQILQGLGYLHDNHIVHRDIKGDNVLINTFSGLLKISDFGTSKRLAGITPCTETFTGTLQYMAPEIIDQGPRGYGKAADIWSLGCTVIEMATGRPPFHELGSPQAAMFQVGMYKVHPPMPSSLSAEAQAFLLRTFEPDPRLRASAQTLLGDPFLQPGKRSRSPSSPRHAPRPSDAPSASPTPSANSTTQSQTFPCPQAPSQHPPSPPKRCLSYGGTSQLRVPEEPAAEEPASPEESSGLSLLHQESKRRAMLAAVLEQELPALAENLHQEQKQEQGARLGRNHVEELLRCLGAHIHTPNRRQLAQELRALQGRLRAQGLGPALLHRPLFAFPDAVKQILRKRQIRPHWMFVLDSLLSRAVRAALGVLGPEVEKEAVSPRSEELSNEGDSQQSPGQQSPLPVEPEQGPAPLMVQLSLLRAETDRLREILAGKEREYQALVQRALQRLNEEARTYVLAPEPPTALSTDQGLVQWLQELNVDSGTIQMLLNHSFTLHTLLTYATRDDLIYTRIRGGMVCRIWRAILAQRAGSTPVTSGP

[11] = molecular target: T11, KinomeScan kinase panel (Homo sapiens, UniProt Q8IY84); conditions: NIM1, 10 µM; read-out: score (%)
T11 construct: purchased DiscoveRx (KinomeScan)

[12] = molecular target: T12, KinomeScan kinase panel (Homo sapiens, UniProt Q13627); conditions: DYRK1A, 10 µM; read-out: score (%)
T12 construct: purchased DiscoveRx (KinomeScan)

[13] = molecular target: T13, KinomeScan kinase panel (Homo sapiens, UniProt O95747); conditions: OSR1, 10 µM; read-out: score (%)
T13 construct: purchased DiscoveRx (KinomeScan)

[14] = molecular target: T14, KinomeScan kinase panel (Homo sapiens, UniProt Q13233); conditions: MAP3K1, 10 µM; read-out: score (%)
T14 construct: purchased DiscoveRx (KinomeScan)

[15] = molecular target: T15, KinomeScan kinase panel (Homo sapiens, UniProt Q9Y2U5); conditions: MAP3K2, 10 µM; read-out: score (%)
T15 construct: purchased DiscoveRx (KinomeScan)

[16] = molecular target: T16, KinomeScan kinase panel (Homo sapiens, UniProt Q8NE63); conditions: HIPK4, 10 µM; read-out: score (%)
T16 construct: purchased DiscoveRx (KinomeScan)

[17] = molecular target: T17, KinomeScan kinase panel (Homo sapiens, UniProt Q6ZN16); conditions: MAP3K15, 10 µM; read-out: score (%)
T17 construct: purchased DiscoveRx (KinomeScan)

[18] = molecular target: T18, KinomeScan kinase panel (Homo sapiens, UniProt P53779); conditions: JNK3, 10 µM
T18 construct: purchased DiscoveRx (KinomeScan)

[19] = molecular target: T19, KinomeScan kinase panel (Homo sapiens, UniProt P51617); conditions: IRAK1, 10 µM; read-out: score (%)
T19 construct: purchased DiscoveRx (KinomeScan)

[20] = molecular target: T20, KinomeScan kinase panel (Homo sapiens, UniProt Q8WTQ7); conditions: GRK7, 10 µM; read-out: score (%)
T20 construct: purchased DiscoveRx (KinomeScan)

[21] = molecular target: T21, KinomeScan kinase panel (Homo sapiens, UniProt Q9NYY3)
T21 construct: purchased DiscoveRx (KinomeScan)

[22] = molecular target: T22, KinomeScan kinase panel (Homo sapiens, UniProt P21860); conditions: ERBB3, 10 µM; read-out: score (%)
T22 construct: purchased DiscoveRx (KinomeScan)

[23] = molecular target: T23, KinomeScan kinase panel (Homo sapiens, UniProt Q92630); conditions: DYRK2, 10 µM; read-out: score (%)
T23 construct: purchased DiscoveRx (KinomeScan)

[24] = molecular target: T24, KinomeScan kinase panel (Homo sapiens, UniProt P42336, E542K); conditions: PIK3CA(E542K), 10 µM; read-out: score (%)
T24 construct: purchased DiscoveRx (KinomeScan)
T24 sequence (P42336 whole entry E542K): as the sequence (P42336 whole entry C420R) above, with R420C, E542K counted along it

[25] = molecular target: T25, KinomeScan kinase panel (Homo sapiens, UniProt P42336, H1047Y); conditions: PIK3CA(H1047Y), 10 µM; read-out: score (%)
T25 construct: purchased DiscoveRx (KinomeScan)

[26] = molecular target: T26, KinomeScan kinase panel (Homo sapiens, UniProt P32298); conditions: GRK4, 10 µM; read-out: score (%)
T26 construct: purchased DiscoveRx (KinomeScan)

[27] = molecular target: T27, KinomeScan kinase panel (Homo sapiens, UniProt Q13523); conditions: read-out: score (%)
T27 construct: purchased DiscoveRx (KinomeScan)

[28] = molecular target: T28, KinomeScan kinase panel (Homo sapiens, UniProt O76039); conditions: CDKL5, 10 µM; read-out: score (%)
T28 construct: purchased DiscoveRx (KinomeScan)

[29] = molecular target: T29, KinomeScan kinase panel (Homo sapiens, UniProt Q9H422); conditions: HIPK3, 10 µM; read-out: score (%)
T29 construct: purchased DiscoveRx (KinomeScan)

[30] = molecular target: T30, KinomeScan kinase panel (Homo sapiens, UniProt Q9Y2K2); conditions: 10 µM
T30 construct: purchased DiscoveRx (KinomeScan)

[31] = molecular target: T31, KinomeScan kinase panel (Homo sapiens, UniProt P42679); conditions: CTK, 10 µM; read-out: score (%)
T31 construct: purchased DiscoveRx (KinomeScan)

[32] = molecular target: T32, KinomeScan kinase panel (Homo sapiens, UniProt Q15835); conditions: GRK1, 10 µM; read-out: score (%)
T32 construct: purchased DiscoveRx (KinomeScan)

[33] = molecular target: T33, KinomeScan kinase panel (Homo sapiens, UniProt O75460); conditions: ERN1, 10 µM; read-out: score (%)
T33 construct: purchased DiscoveRx (KinomeScan)

[34] = molecular target: T34, KinomeScan kinase panel (Homo sapiens, UniProt Q9UPZ9); conditions: ICK, 10 µM; read-out: score (%)
T34 construct: purchased DiscoveRx (KinomeScan)
T34 sequence (Q9UPZ9 whole entry): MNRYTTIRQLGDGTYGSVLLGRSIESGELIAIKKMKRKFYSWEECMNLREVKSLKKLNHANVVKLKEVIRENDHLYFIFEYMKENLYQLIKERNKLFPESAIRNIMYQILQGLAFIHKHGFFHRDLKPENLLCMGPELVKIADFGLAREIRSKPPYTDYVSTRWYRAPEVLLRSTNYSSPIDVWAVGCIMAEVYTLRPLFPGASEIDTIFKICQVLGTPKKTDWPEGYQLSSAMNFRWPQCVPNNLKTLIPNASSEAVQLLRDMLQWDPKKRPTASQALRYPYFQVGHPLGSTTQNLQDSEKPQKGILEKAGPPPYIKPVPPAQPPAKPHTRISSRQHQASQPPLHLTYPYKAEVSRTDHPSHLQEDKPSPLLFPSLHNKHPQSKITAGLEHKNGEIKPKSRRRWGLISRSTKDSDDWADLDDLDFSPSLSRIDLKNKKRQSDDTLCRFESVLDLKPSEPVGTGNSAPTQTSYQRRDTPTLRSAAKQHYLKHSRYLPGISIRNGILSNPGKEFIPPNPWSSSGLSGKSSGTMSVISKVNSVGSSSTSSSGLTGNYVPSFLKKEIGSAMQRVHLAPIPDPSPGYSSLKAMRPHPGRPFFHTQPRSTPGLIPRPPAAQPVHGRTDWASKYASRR

| Compound | score (%) [1] | remaining binding at 10 µM [2] [%] | remaining binding at 10 µM [3] [%] | remaining binding at 10 µM [5] [%] | score (%) [6] [%] | remaining binding at 10 µM [7] [%] | remaining binding at 10 µM [8] [%] | remaining binding at 10 µM [9] [%] | remaining binding at 10 µM [10] [%] | remaining binding at 10 µM [11] [%] | remaining binding at 10 µM [12] [%] | remaining binding at 10 µM [13] [%] | remaining binding at 10 µM [14] [%] | remaining binding at 10 µM [15] [%] | remaining binding at 10 µM [16] [%] | remaining binding at 10 µM [17] [%] | score (%) [18] | remaining binding at 10 µM [19] [%] | remaining binding at 10 µM [20] [%] | remaining binding at 10 µM [22] [%] | other results |
| --- | --- | --- | --- | --- | --- | --- | --- | --- | --- | --- | --- | --- | --- | --- | --- | --- | --- | --- | --- | --- | --- |
| CCN1CCN(Cc2ccc(NC(=O)c3ccc(C)c(C#Cc4cccnc4)c3)cc2C(F)(F)F)CC1 [XMD15-44] | nb (Hits values higher than 30% were considered negative (no binding: nb)) | 72 | > 30 | 88 | 7.4 | 0 | 100 | 0.65 | 12 | 97 | > 30 | 48 | > 30 | 0.15 | 2.2 | > 30 | 0.95% | 1.2 | > 30 | > 30 | remaining binding at 10 µM ([4]; kinase ROCK1, 10 µM): 43%; score (%) ([21]; kinase PLK2, 10 µM): 100%; remaining binding at 10 µM [23]: > 30%; remaining binding at 10 µM [24]: 100%; remaining binding at 10 µM [25]: 81%; remaining binding at 10 µM [26]: > 30%; remaining binding at 10 µM ([27]; kinase PRP4, 10 µM): 54%; remaining binding at 10 µM [28]: 12%; remaining binding at 10 µM [29]: 18%; score (%) ([30]; kinase QSK): 70%; remaining binding at 10 µM [31]: > 30%; remaining binding at 10 µM [32]: > 30%; remaining binding at 10 µM [33]: > 30%; remaining binding at 10 µM [34]: > 30% |
| CCN1CCN(Cc2ccc(NC(=O)c3ccc(C)c(/C=C/c4cnc5[nH]ccc5c4Cl)c3)cc2C(F)(F)F)CC1 [HG-6-63-01, (E)-3-(2-(4-chloro-1H-pyrrolo[2,3-b]pyridin-5-yl)vinyl)-N-(4-((4-ethylpiperazin-1-yl)methyl)-3-(trifluoromethyl)phenyl)-4-methylbenzamide] | – | – | – | – | – | – | – | – | – | – | – | – | – | – | – | – | nb (Hits values higher than 30% were considered negative (no binding: nb)) | – | – | – | – |
| CCN1CCN(Cc2ccc(NC(=O)c3ccc(C)c(NC(=O)c4cncc(-c5cccs5)c4)c3)cc2C(F)(F)F)CC1 [ALW-II-41-27] | nb (Hits values higher than 30% were considered negative (no binding: nb)) | > 30 | > 30 | > 30 | 15 | 0 | > 30 | 9.8 | > 30 | > 30 | 0.15 | > 30 | > 30 | 3.8 | 25 | > 30 | – | 17 | 16 | > 30 | remaining binding at 10 µM ([4]; ROCK1, 10 µM): 0%; score (%) ([21]; PLK2, 10 µM): nb (Hits values higher than 30% were considered negative (no binding: nb)); remaining binding at 10 µM [23]: 18%; remaining binding at 10 µM [24]: > 30%; remaining binding at 10 µM [25]: > 30%; remaining binding at 10 µM [26]: > 30%; remaining binding at 10 µM ([27]; PRP4, 10 µM): > 30%; remaining binding at 10 µM [28]: > 30%; remaining binding at 10 µM [29]: > 30%; score (%) ([30]; QSK): nb (Hits values higher than 30% were considered negative (no binding: nb)); remaining binding at 10 µM [31]: > 30%; remaining binding at 10 µM [32]: > 30%; remaining binding at 10 µM [33]: 1.4%; remaining binding at 10 µM [34]: > 30% |
